Results as given in PubChem BioAssay (NCI).
Several values for one entry are separate records, joined by “and”; a condition that tells them apart may be missing. Identical values can stand only once.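 Method: 48-hour compound exposure of cells in 96-well plates, five concentrations, linear interpolation of endpoints. GI50 is the concentration that inhibits growth by half. Definition used: TGI = concentration required for complete inhibition of growth.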

Experiments:
Experiment in all cases: NCI anticancer screen, dose series, 48 h
[1] = tested on: TK-10 renal
[2] = tested on: CCRF-CEM leukemia
[3] = tested on: EKVX NSCLC
[4] = tested on: U251 CNS
[5] = tested on: NCI-H226 lung
[6] = tested on: M14 melanoma
[7] = tested on: NCI-H460 lung
[8] = tested on: SK-MEL-28 melanoma
[9] = tested on: MALME-3M melanoma
[10] = tested on: SNB-75 CNS

Row | Structure (SMILES) | TGI [1] | TGI [2] | TGI [3] | TGI [4] | TGI [5] | TGI [6] | TGI [7] | TGI [8] | TGI [9] | TGI [10] | GI50 [1] | GI50 [2] | GI50 [10] | GI50 [3] [µM] | GI50 [4] | GI50 [5] | GI50 [6] | GI50 [7] | GI50 [8] | GI50 [9]
1 | c1ccc2c(c1)n1nnnc1c1nnnn21 | > 100 µM | > 100 µM | > 100 µM | > 100 µM | > 100 µM | > 100 µM | > 100 µM | > 100 µM | > 100 µM | 84.3 µM |  |  |  |  |  |  |  |  |  | 
2 | Clc1ccc(/C=C/c2csnn2)cc1 | > 100 µM | > 100 µM | > 100 µM | > 100 µM | > 100 µM | > 100 µM | > 100 µM | > 100 µM | > 100 µM | > 100 µM |  |  |  |  |  |  |  |  |  | 
3 | Cc1cccc(NC(=O)CSc2nnc(-c3ccc(N=Cc4ccc(Cl)cc4)cc3)o2)c1 | > 100 µM | > 100 µM | > 100 µM | > 100 µM | > 100 µM | > 100 µM | > 100 µM | > 100 µM | > 100 µM | > 100 µM |  |  |  |  |  |  |  |  |  | 
4 | CC1(O)CC2C(CC1SCc1ccccc1)C2(C)C (configuration not stated) | > 100 µM and 34.1 µM | > 100 µM and 42.2 µM | 77.3 µM and 31.7 µM | 44.7 µM and 29.7 µM | 42.5 µM and 30.1 µM | 87.2 µM and 28.9 µM | 57.8 µM and 27.7 µM | > 100 µM and 35.4 µM | 44.1 µM and 30.4 µM | 92.4 µM and 28.6 µM | 57.1 µM and 19.9 µM | 37.4 µM and 14.8 µM | 33.8 µM and 15.3 µM |  |  |  |  |  |  | 
5 | CSc1ccc2c(c1)N(CCCN(C)C)c1ccccc1S2 | 28.3 µM | 23.4 µM | 35.1 µM | 27.1 µM | 43.2 µM | 17.8 µM | 26.5 µM | 6.7 µM | 22 µM | 20.8 µM |  |  |  |  |  |  |  |  |  | 
6 | C#CCN(CCCOc1ccc(Cl)cc1Cl)CCCSC(=O)CCCCCN1/C(=C\C=C2/CCCC(/C=C/C3=[N+](CCCCCC(=O)[O-])c4ccccc4C3(C)C)=C2Cl)C(C)(C)c2ccccc21 | 5.17 µM | 4.38 µM | 12.8 µM | 2.11 µM | 4.11 µM | 3.36 µM | 5.01 µM | 2.43 µM | 2.85 µM | 3.85 µM | 2.21 µM | 0.344 µM | 1.3 µM | 2.42 | 0.733 µM | 1.72 µM | 1.61 µM | 1.77 µM | 0.708 µM | 1.21 µM
7 | CN1CCC(C(=O)Nc2n[nH]c3nnc(-c4ccccc4)cc23)CC1 | > 25 µM | > 25 µM | > 25 µM | > 25 µM | > 25 µM | > 25 µM | > 25 µM | > 25 µM | > 25 µM | > 25 µM | > 25 µM | > 25 µM | > 5.22 µM | > 25 | > 25 µM | > 22.3 µM | > 25 µM | > 25 µM | > 25 µM | > 25 µM
8 | O=C(Nc1c(Cl)cc([N+](=O)[O-])cc1Cl)C(=O)C(C(=O)c1ccncc1)C1OC(=O)c2ccccc21 (configuration not stated) | > 100 µM | > 100 µM | > 100 µM | > 100 µM | > 100 µM | > 100 µM | > 100 µM | > 100 µM | > 100 µM | > 100 µM |  |  |  |  |  |  |  |  |  | 
9 | Cc1nc2sc(C(=O)Nc3cccc(Cl)c3)c(N)c2cc1C(O)c1ccccc1 (configuration not stated) | 33.6 µM | > 100 µM | 26.1 µM | > 100 µM | 26.6 µM | > 100 µM | 1.85 µM | 22.3 µM | 20.4 µM | 12.3 µM | 3.77 µM | 0.483 µM | 0.243 µM | 3.39 | 0.584 µM | 3.53 µM | 0.709 µM | 0.379 µM | 3.12 µM | 0.722 µM
10 | O=C1Cc2c([nH]c3ccccc23)-c2cc(Br)ccc2N1 | > 100 µM | > 100 µM | > 100 µM | > 100 µM | > 100 µM | > 100 µM | > 100 µM | > 100 µM | > 100 µM | > 100 µM |  |  |  |  |  |  |  |  |  | 
11 | COc1cc([C@H]2c3cc4c(cc3[C@H](NCc3ccc(F)cc3)C3COC(=O)[C@H]32)OCO4)cc(OC)c1O (some centres not stated) | 41.4 µM | > 100 µM | 28.8 µM | 4.35 µM | 7.61 µM | 13.6 µM | 12.3 µM | 37 µM | 19.5 µM | 9.16 µM |  |  |  |  |  |  |  |  |  | 
12 | CC1(C)O[C@@H](CCl)C[C@@H](C#N)O1 | > 100 µM | > 100 µM | > 100 µM | > 100 µM | > 100 µM | > 100 µM | > 100 µM | > 100 µM | > 100 µM | > 100 µM |  |  |  |  |  |  |  |  |  | 
13 | CC(C)OC(=O)c1cc(NC(=S)OC(C)C)ccc1Cl | 52.4 µM | > 96.3 µM | 32.7 µM | > 57.6 µM | 37.6 µM | > 79.6 µM | > 55.3 µM | > 57 µM | > 56.9 µM | 47.5 µM |  |  |  |  |  |  |  |  |  | 
14 | CC(C)(C)c1cnc(CSc2cnc(NC(=O)C3CCNCC3)s2)o1 | 5.23 µM and > 10 µM | > 100 µM | > 10 µM | 27.6 µM and > 10 µM |  | 2.87 µM and 2.61 µM | 25.4 µM and > 10 µM | 0.523 µM and 1.06 µM | 0.511 µM and 0.907 µM | 0.4 µM and 0.324 µM | 0.62 µM and 0.794 µM | 0.251 µM and 0.168 µM | 0.15 µM and 0.124 µM | 0.427 | 0.193 µM and 0.2 µM | 0.663 µM and 0.222 µM | 0.441 µM and 0.564 µM | 0.306 µM and 0.319 µM | 0.166 µM and 0.221 µM | 0.229 µM and 0.286 µM
15 | Cc1nc(Nc2ccc(Cl)c(Cl)c2)sc1C(/C=C/c1ccc2c(c1)OCO2)=N/Nc1ccc([N+](=O)[O-])cc1[N+](=O)[O-] | > 94.4 µM | > 100 µM | > 100 µM | > 100 µM | > 100 µM | > 100 µM | > 100 µM | > 100 µM | > 100 µM | 32.8 µM |  |  |  |  |  |  |  |  |  | 
16 | COc1ccccc1CNCCCN1C(=O)c2ccc3c4c(ccc(c24)C1=O)C(=O)N(CCCNCCCCN)C3=O | 4.63 µM | 3.28 µM | 2.82 µM | 0.731 µM | 2.55 µM | 1.15 µM | 1 µM | 1.54 µM | 0.327 µM | 1.67 µM | 0.976 µM | 0.304 µM | 0.344 µM | 1.15 | 0.206 µM | 0.828 µM | 0.355 µM | 0.313 µM | 0.425 µM | 0.176 µM
